Measurements taken from the supplement of paper PMC12420376.

Assays:
[1] = tested on: KURAMOCHI; experiment: drug sensitivity score (DSS2) on cancer cell count; higher = more sensitive; extreme values may be limits of the assay; conditions: 72 h
Outline: (§1)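 Ovarian cancer cells grown alone or 1:1 with lung or skin fibroblasts in direct co-culture were treated for 72 h on 384-well plates carrying 528 approved and investigational compounds at 5 concentrations. Fixed cells were stained for CK8/18 with Hoechst and imaged to count cancer cells. A drug sensitivity score was then derived in Breeze from logistic curve fits.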

[2] = tested on: OVCAR8; experiment: as above; conditions: 72 h
Outline: as §1

[3] = co-cultured fibroblast: BJHTERT
[4] = co-cultured fibroblast: none (monoculture)

SMILES	drug sensitivity score [1, 3] [DSS]	drug sensitivity score ([1]; co-cultured fibroblast: WI38) [DSS]	drug sensitivity score [1, 4] [DSS]	drug sensitivity score [2, 3] [DSS]	drug sensitivity score ([2]; co-cultured fibroblast: WI38) [DSS]	drug sensitivity score [2, 4] [DSS]
Cc1ccc(C(=O)Nc2cccc(C(F)(F)F)c2)cc1Nc1nc(-c2cccnc2)nc2c1cnn2C [NVP-BHG712]	5.8	6.7	8.9	0	6.8	7.5
Cc1cn(-c2cc(NC(=O)c3ccc(C)c(Nc4nccc(-c5cnccn5)n4)c3)cc(C(F)(F)F)c2)cn1 [Radotinib]	0	0	0	0	6.2	1.2
CC1(C)NC(=O)N(c2ccc([N+](=O)[O-])c(C(F)(F)F)c2)C1=O [Nilutamide]	0	3.2	14.5	0	0	0
CCN(CC)CCNC(=O)c1c(C)[nH]c(/C=C2\C(=O)Nc3ccc(-c4csc(-c5ccccc5)n4)cc32)c1C [Amcasertib]	8.1	3.9	6.7	3.3	3.1	0
Cc1cnc(-c2ccccc2C(C)C)nc1NCc1ccc(-n2ccnn2)cc1 [ML323]	0	1.3	1.9	2.9	0	3.8
O=C(NCc1ccncc1)C12CC3CC(C1)CC(c1ccc(Cl)cc1)(C3)C2	5.8	5.6	3.7	3.9	3.6	5
CC[C@H](CC#N)OC(=O)N[C@@H](C)c1cccc(NC(=O)Nc2ccc(-c3cnco3)c(OC)c2)c1 [AVN944]	12.7	17.5	19.4	22.4	15	26.6
Oc1ncnc2[nH]ncc12 [Allopurinol]	0	0	0	0	0	0
Cc1ccc(=O)n(-c2ccccc2)c1 [Pirfenidone]	1.8	0	0	0	0.7	0
CC/C(=C(\c1ccccc1)c1ccc(OCCN(C)C)cc1)c1ccccc1 [Tamoxifen]	1.3	1.3	0	3.3	0	1
COc1cccc2c1C(=O)c1c(O)c3c(c(O)c1C2=O)C[C@@](O)(C(C)=O)C[C@@H]3O[C@H]1C[C@H](N)[C@H](O)[C@H](C)O1 [Daunorubicin]	11.9	14.6	13.9	14.7	15.9	15.1
N#CC1(c2ccc(NC(=O)c3cccnc3NCc3ccncc3)cc2)CCCC1 [Apatinib]	0	0	0	0	4.9	2.2
CO[C@H]1C[C@@H]2CC[C@@H](C)[C@@](O)(O2)C(=O)C(=O)N2CCCC[C@H]2C(=O)O[C@H]([C@H](C)C[C@@H]2CC[C@@H](OC(=O)C(C)(CO)CO)[C@H](OC)C2)CC(=O)[C@H](C)/C=C(\C)[C@@H](O)[C@@H](OC)C(=O)[C@H](C)C[C@H](C)/C=C/C=C/C=C/1C [Temsirolimus]	16.8	14.2	8.6	8.8	0	11
CN(C)CCCOc1ccc(-c2ccc3ncc4c(c3c2)n(C2CCOCC2)c(=O)n4C)cn1 [AZD0156]	2.5	1.4	0.7	6.4	6.8	0.5
NC1(c2ccc(-c3nc4ccn5c(=O)[nH]nc5c4cc3-c3ccccc3)cc2)CCC1 [MK-2206]	5.8	1.4	16.1	0.2	0	0.3
COC(=O)C[C@](O)(CCCC(C)(C)O)C(=O)O[C@@H]1C(OC)=C[C@]23CCCN2CCc2cc4c(cc2[C@H]13)OCO4 [Omacetaxine]	23.8	24.5	30.6	29.3	30.1	29.8
CC(C)(O)CNc1nc(Nc2ccnc(C(F)(F)F)c2)nc(-c2cccc(C(F)(F)F)n2)n1 [Enasidenib]	0.3	0	0	0	0	0
CC(C)(C)c1cc(NC(=O)Nc2ccc(Oc3ccnc4[nH]c(=O)cnc34)cc2F)n(-c2ccccc2)n1	10	6.1	7	6.6	3.4	4.6
Cc1ccc(-c2cc(C(F)(F)F)nn2-c2ccc(S(N)(=O)=O)cc2)cc1 [Celecoxib]	0	0	0.5	0.1	0	0.1
CN1CCc2c(c3ccccc3n2Cc2ccc(C(=O)NO)cc2)C1 [Tubastatin A]	0	3.3	4.6	0	4.3	5.2
CC#CC(=O)N1CCC[C@H]1c1nc(-c2ccc(C(=O)Nc3ccccn3)cc2)c2c(N)nccn12 [Acalabrutinib]	0	0	11	0	0	0
Cn1ncnc1[C@H]1c2n[nH]c(=O)c3cc(F)cc(c23)N[C@@H]1c1ccc(F)cc1 [Talazoparib]	10.5	15	16.3	19.5	15.3	15.8
N#CC(c1ccnc(OCc2ccc(CN3CCOCC3)cc2)n1)c1nc2ccccc2s1 (centres undefined) [Bentamapimod]	2.5	2.3	0.2	0	0	1.4
Cn1ncc(Cl)c1-c1cc(C(=O)N[C@H](CN)Cc2cccc(F)c2)sc1Cl [Afuresertib]	1.1	0	0	0.3	0	0
CC1(C)CC[C@]2(NC(=O)C(C)(F)F)CC[C@]3(C)[C@H](C(=O)C=C4[C@@]5(C)C=C(C#N)C(=O)C(C)(C)[C@@H]5CC[C@]43C)[C@@H]2C1 [Omaveloxolone]	17.2	17.8	20.1	7	20	21.5

SMILES	drug sensitivity score [1, 3] [DSS]	drug sensitivity score ([1]; co-cultured fibroblast: WI38) [DSS]	drug sensitivity score [1, 4] [DSS]	drug sensitivity score [2, 3] [DSS]	drug sensitivity score ([2]; co-cultured fibroblast: WI38) [DSS]	drug sensitivity score [2, 4] [DSS]
CN1CC[C@@H](NC(=O)Nc2ccc(C#N)cc2)C[C@@H]1c1nc2ccccc2[nH]1 [Glasdegib]	0.5	1.1	0	0	0	0
CC[C@]12C=CCN3CC[C@@]4(c5cc([C@@]6(C(=O)OC)C[C@@H]7C[C@@H](C(C)(F)F)CN(Cc8c6[nH]c6ccccc86)C7)c(OC)cc5N(C)[C@H]4[C@@](O)(C(=O)OC)[C@@H]1OC(C)=O)[C@@H]32 [Vinflunine]	3.1	7	7.9	6.9	3.7	3.9
COC[C@H](NC(=O)c1cnc(C)s1)C(=O)N[C@@H](COC)C(=O)N[C@@H](Cc1ccccc1)C(=O)[C@@]1(C)CO1 [Oprozomib]	15.7	15.1	12.6	17.7	12.7	10.8
COc1cc(C)[nH]c(=O)c1CNC(=O)c1c(C)n([C@H](C)C2CCOCC2)c2ccccc12 [CPI-360]	0	5.4	0.7	0	0	0
O=c1[nH]c(=O)n([C@H]2C[C@H](O)[C@@H](CO)O2)cc1C(F)(F)F [Trifluridine]	5.4	9.2	7.4	5.2	2.7	9
CC(C)[C@H](C(=O)Nc1ccc(C(=O)NO)cc1)c1ccccc1 [AR-42]	14	15.8	12.3	17.8	15.3	18.8
CCn1c(-c2nonc2N)nc2c(C#CC(C)(C)O)ncc(OC[C@H]3CCCNC3)c21	4.3	6.1	3.9	0.2	1.1	0.4
CC(C)C[C@H](NC(=O)[C@H](Cc1ccccc1)NC(=O)c1cnccn1)B(O)O [Bortezomib]	11.5	25.6	15.7	17.3	27.3	26
CCNC(=O)CCC/C=C\C[C@@H]1[C@@H](/C=C/[C@@H](O)CCc2ccccc2)[C@H](O)C[C@@H]1O [Bimatoprost]	0	0	0	0	0	0
COc1cc2nccc(Oc3ccc(NC(=O)Nc4cc(C)on4)c(Cl)c3)c2cc1OC [Tivozanib]	5.7	3.8	0.4	2.8	8.9	4.9
O=C(Nc1ccc(OC(F)(F)Cl)cc1)c1cnc(N2CC[C@@H](O)C2)c(-c2cc[nH]n2)c1 [Asciminib]	0	0	0	0	10.5	0
Cc1ccc(C(=O)N(CCCN)[C@@H](c2oc3cc(Cl)ccc3c(=O)c2Cc2ccccc2)C(C)C)cc1	8.3	17.2	14.6	5.2	7.6	29.1
CC(C)[C@@H](CS(=O)(=O)C(C)C)N1C(=O)[C@@](C)(CC(=O)O)C[C@H](c2cccc(Cl)c2)[C@H]1c1ccc(Cl)cc1 [AMG-232]	0.2	0	0.5	1.6	0	0.7
CCn1c(-c2nonc2N)nc2cnc(Oc3cccc(NC(=O)c4ccc(OCCN5CCOCC5)cc4)c3)cc21	4.2	5.2	4.2	10.9	31.2	18.4
C[C@H]1O[C@@H](O[C@H]2[C@@H](O)C[C@H](O[C@H]3[C@@H](O)C[C@H](O[C@H]4CC[C@@]5(C)[C@H](CC[C@@H]6[C@@H]5C[C@@H](O)[C@]5(C)[C@@H](C7=CC(=O)OC7)CC[C@]65O)C4)O[C@@H]3C)O[C@@H]2C)C[C@H](O)[C@@H]1O [Digoxin]	8.6	10.9	14.2	14.9	11.6	12.7
Cn1c(=O)n(-c2ccc(C(C)(C)C#N)cc2)c2c3cc(-c4cnc5ccccc5c4)ccc3ncc21 [Dactolisib]	12.4	15.5	20.5	13.3	8.2	17.6
COc1cc(Nc2ncc(F)c(Nc3ccc4c(n3)NC(=O)C(C)(C)O4)n2)cc(OC)c1OC [Tamatinib]	0.6	3.7	6	0	4.3	0.9
CC(C)N(CCCNC(=O)Nc1ccc(C(C)(C)C)cc1)C[C@H]1O[C@@H](n2cc(Br)c3c(N)ncnc32)[C@H](O)[C@@H]1O [SGC0946]	0.1	3.3	0	0	0	0
Cc1cc(Nc2cc(N3CCN(C)CC3)nc(/C=C/c3ccccc3)n2)n[nH]1 [ENMD-2076]	11.1	8.4	3.7	13.1	8.6	10.6
Cc1cc(Nc2cc(CN3CCOCC3)c3nc(C)c(Cc4ccc(Cl)cc4F)n3n2)n[nH]1 [Gandotinib]	7.6	3.7	4	9	12.1	9.7
COc1cc2/c(=N/c3ccc(Br)cc3F)nc[nH]c2cc1OCC1CCN(C)CC1 [Vandetanib]	0	2.6	10.6	0	0	2.1
CCCCC(=O)OCC(=O)[C@]1(O)Cc2c(O)c3c(c(O)c2[C@@H](O[C@H]2C[C@H](NC(=O)C(F)(F)F)[C@H](O)[C@H](C)O2)C1)C(=O)c1c(OC)cccc1C3=O [Valrubicin]	19.7	17.1	24.1	17.6	15.3	18.4
O=C(c1ccc(F)c(F)c1Nc1ccc(I)cc1F)N1CC(O)([C@@H]2CCCCN2)C1 [Cobimetinib]	11.5	6.4	7.2	8.4	2.1	9.6
COc1cccc2c1C(=O)c1c(O)c3c(c(O)c1C2=O)C[C@@](O)(C(=O)CO)C[C@@H]3O[C@H]1C[C@H](N)[C@H](O)[C@H](C)O1 [Doxorubicin]	10.7	12.7	25.1	12.5	12.3	12.1
